{"source": "patent US12533095B1", "about": "“Airway mucus scoring system” (The Regents of the University of California, priority 2016, dated 2026)", "key": {"[1]": {"test": "Maximum bronchodilator reversibility test (MBRT)", "format": "in vivo, human", "description": "(§1) Treatment response to bronchodilators and systemic corticosteroids: Maximum Bronchodilator Reversibility tests (MBRT's) were performed on baseline visits 2 and 3. MBRT was determined by measuring spirometry before and after 360-720 meg of albuterol sulfate delivered by metered-dose inhaler. Patients also underwent a systemic corticosteroid response test (SCRT), which involved an intramuscular injection of triamcinolone acetonide (40 mg) on visit 2 and repeat characterization including MBRT and blood draw on visit 3 (2-4 weeks later). Maximum bronchodilator reversibility test (MBRT): Subjects were asked to hold their bronchodilator medications prior to spirometry testing. Following baseline spirometry, 4 puffs of albuterol (360 mcg) were administered. Spirometry was then repeated 15 minutes later. If the change in FEV1 from the spirometry maneuver performed after 4 puffs was greater than 5%, an additional 2 puffs of albuterol (180 mcg) were then administered and spirometry was repeated again 15 minutes later. If the change in FEV1 after 6 puffs was greater than 5%, an additional 2 puffs of albuterol were administered with repeat spirometry after an additional 15 minutes. If the change was less than 5% after 4 or 6 puffs of albuterol, the procedure was stopped and the last maneuver was taken to be the highest achievable measure. No more than 8 puffs of albuterol were administered as part of the MBRT procedure. MBRT was measured on baseline visits 2 and 3 (FIG. 5)."}, "[2]": {"test": "Bronchodilator reversibility testing repeated after intramuscular corticosteroid (combined SCRT and MBRT)", "format": "in vivo, human", "conditions": "patients with high mucus scores; bronchodilator reversibility testing repeated after intramuscular steroid", "description": "as §1, with “Systemic Corticosteroid Responsiveness Test (SCRT): Patients were given an intramuscular injection of triamcinolone acetonide (40 mg) following complete characterization on visit 2. Repeat characterization post steroid injection (excluding MDCT), was carried out on visit 3 (2-4 weeks later) (FIG. 5). Treatment” for “Treatment”, “If the change in FEV1 after 6 puffs was greater than 5%, an additional 2 puffs of albuterol were administered with repeat spirometry after an additional 15 minutes. If the change was less than 5% after 4 or 6 puffs of albuterol, the procedure was stopped and the last maneuver was taken to be the highest achievable measure. No more than 8 puffs of albuterol were administered as part of the MBRT procedure.” left out"}, "[3]": {"test": "Systemic corticosteroid responsiveness test (SCRT)", "format": "in vivo, human", "description": "Systemic Corticosteroid Responsiveness Test (SCRT): Patients were given an intramuscular injection of triamcinolone acetonide (40 mg) following complete characterization on visit 2. Repeat characterization post steroid injection (excluding MDCT), was carried out on visit 3 (2-4 weeks later) (FIG. 5). Treatment response to bronchodilators and systemic corticosteroids: Maximum Bronchodilator Reversibility tests (MBRT's) were performed on baseline visits 2 and 3. MBRT was determined by measuring spirometry before and after 360-720 meg of albuterol sulfate delivered by metered-dose inhaler. Patients also underwent a systemic corticosteroid response test (SCRT), which involved an intramuscular injection of triamcinolone acetonide (40 mg) on visit 2 and repeat characterization including MBRT and blood draw on visit 3 (2-4 weeks later). Induced Sputum: Sputum induction was done on visits 2 and 3. For safety, induced sputum was only collected from patients whose FEV1 was >50% predicted after albuterol pretreatment (360 μg). Total and differential cell counts were quantified in a central laboratory (Wake Forest University) using methods previously described^5,6. Gene expression for type 2 cytokines [interleukin (IL)-4, IL-5, and IL-13] and for airway gel-forming mucins (MUC5AC, MUC5B) were measured in RNA isolated from induced sputum cell pellets using real-time Taqman-based quantitative PCR (qPCR) 7 as described herein (including Table 3). RNA isolation and qPCR were done in a central laboratory (University of California at San Francisco)."}, "[4]": {"test_system": "primary human airway epithelial cells", "test": "Apical secretion of Eotaxin-3 (CCL26) at air liquid interface", "format": "cell-based", "conditions": "10 ng/ml in basolateral media for 4 days; vs untreated control (FIG. 11E)", "description": "Apical secretion of Eotaxin-3 (CCL26): Human airway epithelial cells (AECs) were isolated from tracheas collected from cadaveric lung donors from the California Donor Network as a part of a separate study (Gordon et al., Proc Natl Acad Sci USA. 113, 8765-8770. doi: 8710.1073/pnas.1601914113. Epub 160191216 Jul. 1601914118. (2016)). Cells were expanded in 5% FCS in DMEM/F12 supplemented with a rho kinase inhibitor (Y-27632 SellekChem) to promote proliferation (Liu et al., Am J Pathol. 180, 599-607. doi: 510.1016/j.ajpath.2011.1010.1036. Epub 211 Dec. 1018. (2012)). Once cells reached 90% confluency flasks were washed and cells trypsinized with TrypLE (Gibco). Subconfluent cells were plated to submerged transwell inserts, using the modified Schlegel culture conditions previously described (Chu et al., Gene Ther. 22, 822-829. doi: 810.1038/gt.2015.1053. Epub 2015 July 1032. (2015)). Once cells reached confluence, the cultures were taken to air-liquid interface (ALI) in PnuemaCult Maintenance media (StemCell Technologies) and maintained for 21-days. At day 21, cells were treated with 10 ng/ml recombinant human IL-13 (R&D systems) in the basolateral media for 4 days. To measure eotaxins secreted at the apical surface of ALI cultures. 300 μL warmed PBS was added to the surface of the cells. […]"}, "[5]": {"test_system": "eosinophils", "test": "Cysteine cross-linking assay (BODIPY labeled cysteine exposed to eosinophils)", "format": "cell-based, human", "conditions": "unstimulated and PMA-stimulated eosinophils; vs catalase-free control (FIG. 11H)", "description": "Eosinophil Isolation and stimulation of respiratory burst: Eosinophils were purified from the peripheral blood of 4 atopic asthmatic subjects (age 48±23 years). Each subject donated 100 mL of blood on one or more occasions. All subjects signed consent forms and usage was approved by the UCSF Committee on Human Research. Eosinophils were isolated from whole blood using a three-step method in which we first pelleted the cells, followed by water lysis to remove red blood cells and finally eosinophils were purified using immunomagnetic beads (Human Eosinophil Isolation kit. Miltenyi Biotec). Briefly, whole blood was collected in EDTA (purple-top) tubs and pelleted at 1500 g for 15 minutes at 4° C. The plasma on top was removed and cell pellet retained for two cycles of water lysis. […]\nCysteine cross-linking assay: To explore cystine formation generated by eosinophil stimulation, BODIPY FL L-cysteine was generated from […] BODIPY FL L-Cystine (ThermoFisher Scientific) in Tyrode's Salts by reduction with one quarter volume packed TCEP-Gel (ThermoFisher Scientific) for 1 hour at 25° C. The reaction yields an 8 to 10-fold increase in fluorescence at 490 nm/520 nm Ex/Em. […] The decrease in fluorescence at 490 nm/520 nm Ex/Em was monitored over 2 hours at 37° C. on a Synergy H1 plate reader (BioTek Instruments) with the addition of 50,000 peripheral blood eosinophils in 100 μl Tyrode's Salts. […]"}}, "data": [{"compound": "CC(C)(C)NCC(O)c1ccc(O)c(CO)c1", "note": "(stereo not shown) [albuterol]", "values": [{"measurement": "patients with residual abnormalities in FEV1 (FEV1 <80% predicted) following maximum bronchodilator testing", "setting": "[1]; asthma patients with a high mucus score", "result": 73, "unit": "%"}, {"measurement": "patients with residual FEV1 abnormalities after maximum bronchodilation testing", "setting": "[1]; asthma patients with a zero-mucus score", "result": 20, "unit": "%"}, {"measurement": "mean post-bronchodilator FEV1 in the high mucus group lower than in the zero-mucus group", "setting": "[1]; asthma patients, inhaled albuterol (540-720 mcg), high vs zero mucus group", "result": 24, "unit": "%"}]}, {"compound": "CC1(C)O[C@@H]2C[C@H]3[C@@H]4CCC5=CC(=O)C=C[C@]5(C)[C@@]4(F)[C@@H](O)C[C@]3(C)[C@]2(C(=O)CO)O1", "note": "[triamcinolone acetonide]", "values": [{"measurement": "proportion of patients whose FEV1 remained below 80%", "setting": "[2]", "result": "half"}, {"measurement": "patients with residual abnormalities in FEV1 following the SCRT", "setting": "[3]; asthma patients with high mucus scores, intramuscular 40 mg", "result": 72, "unit": "%"}, {"measurement": "patients with residual FEV1 abnormalities following the SCRT", "setting": "[3]; asthma patients with zero mucus scores, intramuscular 40 mg", "result": 28, "unit": "%"}, {"measurement": "mean post steroid FEV1 lower in the high-mucus group than the zero-mucus group", "setting": "[3]; asthma patients, intramuscular 40 mg, high vs zero mucus group", "result": 21, "unit": "%"}, {"measurement": "Sputum eosinophil % following treatment with intramuscular steroid", "setting": "[3]; patients with a high mucus score (FIG. 10A)", "result": "remains significantly increased"}, {"measurement": "Gene expression for interleukin 13 in sputum cells following treatment with intramuscular steroid", "setting": "[3]; patients with a high mucus score (FIG. 10B)", "result": "remains significantly increased"}, {"measurement": "Gene expression for interleukin 5 in sputum cells following treatment with intramuscular steroid", "setting": "[3]; patients with a high mucus score (FIG. 10C)", "result": "remains significantly increased"}, {"measurement": "FEV1% predicted post steroid treatment", "setting": "[3]; subjects with a high mucus score (FIG. 4B)", "result": "remained significantly decreased"}]}, {"compound": "IL-13: recombinant human IL-13 (R&D systems) used to stimulate airway epithelial cells", "values": [{"measurement": "concentration of eotaxin-3 in apical mucus secretions", "setting": "[4]", "result": "marked increases"}]}, {"compound": "catalase", "values": [{"measurement": "cystine dimer formation", "setting": "[5]", "result": "significantly decreased"}]}]}
